Assay results published in patent publication US20260085293A1, “SOLUTION AND METHOD FOR TRANSPORTING OR STORING BODY FLUID SAMPLE” (PROVIGATE INC., priority 2023, published 2026).

Test system: glycoalbumin
Assay: Relative GA value of diluted pool serum with active ingredient after 2 days at 37° C., assayed by HPLC
Parameters: species or system human
Procedure: Examples will now be described. Blood samples were diluted with diluents containing active ingredients according to the embodiments of the present disclosure, and the GA values thereof were assayed by HPLC on the same day and after two days.
First, a solution containing 10 mM of HEPES and 150 mM of NaCl was prepared. The pH was 8.0. Into this solution, an active ingredient was mixed to prepare a diluent.
In Examples 1 to 4, pool serum was used as the blood samples. The pool serum was prepared by isolating serum from venous blood taken from multiple healthy subjects and then mixing. The resulting product was mixed with the diluent described above. Into 90 μL of the diluent, 10 μL of the blood serum was introduced to prepare a 10-fold dilution (10×) assay sample.
The sample was assayed on the same day (“day 0”) or was stored in a 37° C. constant temperature reservoir for two days (“day 2”) and then assayed.
For the assay conditions, “GA detection by HPLC method” J Chromatogr 597, 271-275 (1992) was referred. Columns used were AEX:Shodex-Asahipak ES-502N (7.5 mm ID ×100 mm) (Showa Denko K.K.) and BAC:TSKgel Boronate-5PW (4.6 mm ID×100 mm) (TOSOH CORPORATION). The eluents used were glycine (JIS special grade), magnesium chloride hexahydrate (JIS special grade), D(−)-sorbitol (Wako 1st grade), ethanol (99.5%, JIS special grade), tris(hydroxymethyl)aminomethane (Tris, Biotechnology grade), and EDTA-2Na. For the analysis, Prominence HPLC system (Shimadzu Corporation) equipped with a system controller was used.
In the graphs indicated in FIGS. 2 to 5, the vertical axis indicates the ratio (relative GA value) of the GA value assayed two days (day 2) after the preparation to the GA value measured on the same day (day 0) as the preparation. When assay was carried out multiple times, the average value is indicated.
Each of the additives was dissolved in the diluent to a predetermined concentration (0.1% to 0.5%) in w/v. For example, specifically, 570 μL of the diluent containing each additive was added to 30 μL of pool serum to prepare a 20× diluted liquid. The GA% of the day 0 sample and that of the day 2 sample left to stand still for 2 days in a 37° C. constant temperature reservoir were assayed by using HPLC.

[1] = 0.1 w/v% active ingredient in diluent
[2] = 0.2 w/v% active ingredient in diluent

Structure (SMILES) | relative GA value (day 2 / day 0) [1] | relative GA value (day 2 / day 0) [2] | relative GA value (day 2 / day 0), in words (0.5 w/v% active ingredient in diluent, not illustrated)
[H]/N=C(/N)N[C@H]1[C@H](O)[C@@H](O)[C@H](O[C@@H]2O[C@@H](C)[C@](O)(C=O)[C@H]2O[C@@H]2O[C@@H](CO)[C@H](O)[C@@H](O)[C@@H]2NC)[C@@H](N/C(N)=N\[H])[C@@H]1O [STR, streptomycin, reference compound] | about 100% | about 102% | –
OC[C@H]1O[C@H](O[C@H]2[C@H](O)[C@@H](O)[C@@H](O[C@H]3[C@H](O)[C@@H](O)C(O)O[C@@H]3CO)O[C@@H]2CO)[C@H](O)[C@@H](O)[C@@H]1O (mixture of isomers) [MT, maltotriose] | about 98.2 | about 99.8 | excessively large
CN[C@@H]1[C@@H](O)[C@@H](O[C@@H]2[C@@H](O)[C@H](O[C@H]3O[C@H]([C@@H](C)O)[C@@H](O)[C@H](O)[C@H]3N)[C@@H](N)C[C@H]2N)OC[C@]1(C)O [G418, reference compound] | about 98.2 | about 98.2 | –
CC(=O)N[C@H]1C(O)O[C@H](CO)[C@@H](O)[C@@H]1O[C@H](C)C(=O)O (stereo partly drawn) [NAM, N-acetylmuramic acid] | about 98.5 | about 99.0 | –
